The results in this text go back to ChEMBL document CHEMBL1201862, “PubChem BioAssay data set” (2004).

For orientation: EC50 means the concentration needed to bring the measured effect to its halfway point. The term IC50 denotes the concentration that gives 50% inhibition. Usually AC50 stands for the concentration giving half of the maximal activity seen. A word on the CC50: it is the concentration giving 50% cytotoxicity.

The source made the active and inactive calls.

A short description of assay [1]: C. albicans growth with fluconazole, confirmation, fluorescence, retest (AID 2467). The format is functional, cell-based.
The nature of assay [2]: NIH-3T3 fibroblast cytotoxicity, dose response, cytotoxicity control, cell-based, fluorescence, Alamar Blue, secondary assay (AID 2327).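 Note: NIH-3T3 mouse fibroblasts cultured with fluconazole at 8 µg/mL.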 The format is functional. On the technique in general: Alamar Blue is a resazurin reagent that responds to reducing activity.
Assay [3] deals with T1, Fructose-bisphosphate aldolase (Mycobacterium tuberculosis, UniProt P9WQA3).
T1 sequence (P9WQA3 whole entry): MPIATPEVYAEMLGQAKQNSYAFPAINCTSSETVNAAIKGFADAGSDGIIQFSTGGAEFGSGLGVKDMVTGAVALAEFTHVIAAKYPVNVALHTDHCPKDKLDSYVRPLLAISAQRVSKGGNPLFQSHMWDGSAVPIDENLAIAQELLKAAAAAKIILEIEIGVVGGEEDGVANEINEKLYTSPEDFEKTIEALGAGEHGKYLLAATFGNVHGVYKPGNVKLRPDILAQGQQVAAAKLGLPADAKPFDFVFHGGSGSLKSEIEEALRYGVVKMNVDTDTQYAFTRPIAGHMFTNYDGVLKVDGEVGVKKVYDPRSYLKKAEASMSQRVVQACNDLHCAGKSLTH
The assay is described as follows: Fluorescence-based biochemical high throughput dose response assay for inhibitors of the fructose-bisphosphate aldolase (FBA) of M. tuberculosis. The assay is classed as functional.

Another assay deals with Albumin (Bos taurus, UniProt P02769). The assay can be described thus: Counterscreen for inhibitors of T-cell receptor (TCR)-CD3 interaction: Fluorescence-based biochemical high throughput dose response assay to identify inhibitors of T-cell receptor (TCR)-CD3 interaction using a TAMRA-labeled BSA probe. The assay is classed as functional. A general note: The purpose of a counterscreen is to sort out artefacts and off-target activity.

The target in assay [4] is T2, Long-chain-fatty-acid--AMP ligase FadD28 (Mycobacterium tuberculosis, UniProt P9WQ59).
T2 sequence (P9WQ59 whole entry): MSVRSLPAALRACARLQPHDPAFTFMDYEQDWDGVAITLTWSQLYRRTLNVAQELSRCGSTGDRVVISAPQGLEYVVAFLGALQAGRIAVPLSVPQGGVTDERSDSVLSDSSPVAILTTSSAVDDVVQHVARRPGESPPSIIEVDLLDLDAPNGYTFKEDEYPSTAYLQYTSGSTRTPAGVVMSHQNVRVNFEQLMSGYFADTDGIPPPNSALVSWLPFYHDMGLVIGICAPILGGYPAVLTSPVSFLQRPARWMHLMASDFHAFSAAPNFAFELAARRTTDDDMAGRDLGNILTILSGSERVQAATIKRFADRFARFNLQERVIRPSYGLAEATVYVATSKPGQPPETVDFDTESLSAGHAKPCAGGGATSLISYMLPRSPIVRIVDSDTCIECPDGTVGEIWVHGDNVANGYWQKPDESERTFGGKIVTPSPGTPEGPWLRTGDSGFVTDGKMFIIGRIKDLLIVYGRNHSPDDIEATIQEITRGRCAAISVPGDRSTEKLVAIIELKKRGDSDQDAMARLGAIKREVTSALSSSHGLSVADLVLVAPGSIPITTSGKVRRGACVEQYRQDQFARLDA
The assay can be described thus: Fluorescence polarization aasay to screen for inhibitors that compete for the binding of FadD28 to a bisubstrate Measured in Biochemical System Using Plate Reader - 2147-01_Inhibitor_Dose_CherryPick_Activity. The format is functional, Mycobacterium tuberculosis H37Rv.

For assay [5], the target named is 5-hydroxytryptamine receptor 2A (Mus musculus, UniProt P35363). The format is functional, cell-based.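 Note: CHO-K1 cells with tagged receptor and beta-arrestin; agonist potency measured as compound-induced activation of the receptor.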
The target in another assay is Mu-type opioid receptor (Homo sapiens, UniProt P35372). The format is functional, cell-based.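 Note: U2OS cells with beta-arrestin recruitment to OPRM1 by beta-gal complementation.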
Assay [6] is described as follows: HeLa cell cytotoxicity, dose response, cytotoxicity control for MgcRacGAP inhibitor project (AID 624300). The format is functional.
For assay [7], the target named is T3, DNA repair and recombination protein RAD54-like (Homo sapiens, UniProt Q92698).
T3 sequence (Q92698 whole entry): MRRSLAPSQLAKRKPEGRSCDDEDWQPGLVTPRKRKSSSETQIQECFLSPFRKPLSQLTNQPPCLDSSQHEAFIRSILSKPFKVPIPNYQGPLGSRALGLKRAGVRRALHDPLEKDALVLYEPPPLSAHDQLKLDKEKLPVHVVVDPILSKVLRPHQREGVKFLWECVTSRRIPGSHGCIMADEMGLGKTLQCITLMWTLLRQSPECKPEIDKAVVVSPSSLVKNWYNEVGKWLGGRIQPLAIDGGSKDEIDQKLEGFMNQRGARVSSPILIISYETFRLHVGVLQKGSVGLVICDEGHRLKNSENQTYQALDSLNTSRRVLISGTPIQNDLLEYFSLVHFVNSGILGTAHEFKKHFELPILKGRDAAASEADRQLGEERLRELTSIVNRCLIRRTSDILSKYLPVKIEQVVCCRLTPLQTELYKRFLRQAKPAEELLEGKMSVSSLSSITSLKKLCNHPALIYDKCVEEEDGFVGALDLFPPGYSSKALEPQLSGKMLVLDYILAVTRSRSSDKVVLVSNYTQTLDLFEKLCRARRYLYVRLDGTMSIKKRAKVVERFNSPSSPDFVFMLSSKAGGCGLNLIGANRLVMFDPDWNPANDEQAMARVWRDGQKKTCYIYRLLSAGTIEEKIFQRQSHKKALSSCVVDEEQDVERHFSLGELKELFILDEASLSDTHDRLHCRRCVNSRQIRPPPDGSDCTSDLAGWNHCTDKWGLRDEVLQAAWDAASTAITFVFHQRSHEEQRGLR
The assay is described as follows: inhibitors of human RAD54 branch migration, confirmation, biochemical, fluorescence, cherry-picked samples, dose series (AID 651657). The format is functional.

Assay [8] addresses T4, Rac GTPase-activating protein 1 (Homo sapiens, UniProt Q9H0H5).
T4 sequence (Q9H0H5 whole entry): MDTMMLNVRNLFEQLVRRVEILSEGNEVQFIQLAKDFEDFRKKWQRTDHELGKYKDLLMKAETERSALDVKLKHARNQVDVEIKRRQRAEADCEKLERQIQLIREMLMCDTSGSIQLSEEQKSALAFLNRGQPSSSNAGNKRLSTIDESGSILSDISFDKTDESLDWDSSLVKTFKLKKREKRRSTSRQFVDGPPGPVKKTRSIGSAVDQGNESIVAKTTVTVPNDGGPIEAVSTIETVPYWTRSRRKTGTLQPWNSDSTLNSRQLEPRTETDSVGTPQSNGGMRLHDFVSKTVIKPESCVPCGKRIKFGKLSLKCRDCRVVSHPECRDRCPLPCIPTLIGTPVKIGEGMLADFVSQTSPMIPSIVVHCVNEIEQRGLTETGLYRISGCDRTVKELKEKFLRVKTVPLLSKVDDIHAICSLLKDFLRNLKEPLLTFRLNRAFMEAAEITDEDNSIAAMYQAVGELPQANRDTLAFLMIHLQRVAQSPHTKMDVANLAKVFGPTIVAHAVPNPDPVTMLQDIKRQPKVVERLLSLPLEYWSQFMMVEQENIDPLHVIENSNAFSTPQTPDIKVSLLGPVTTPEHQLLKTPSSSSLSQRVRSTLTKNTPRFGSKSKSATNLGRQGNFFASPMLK
The assay can be described thus: MgcRacGAP GTPase-activating activity inhibitors, confirmation, biochemical, ADP Hunter fluorescence, primary and confirmatory (AID 624330). The format is functional.

A short description of assay [9]: Luminescence Cell-Based Dose Confirmation HTS to Identify Inhibitors of Platelet Dense Granule Release. [Related pubchem assays: 1663 (Primary HTS), 1678 (Summary of Project)]. The assay is classed as functional.
Assay [10] concerns the target Luciferin 4-monooxygenase (Photinus pyralis, UniProt P08659). The assay is described as follows: firefly luciferase enzyme inhibitors, dose response, biochemical, luminescence (AID 1891).
In another assay the target is Large T antigen (Simian virus 40, UniProt P03070). The format is functional, Betapolyomavirus macacae.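 Note: Confirmatory-stage PubChem screen for compounds that inhibit SV40 T antigen.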
The nature of assay [11]: miR-122 activators in hepatoma reporter cells, dose response, cell-based, Huh7 psiCHECK-miR122, Renilla luciferase, cherry-picked (AID 651956).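 Note: huh7 hepatoma cells stably carrying a psiCHECK-2 miR-122 sensor plasmid; renilla luciferase signal reporting endogenous miR-122 activity after 48 h compound exposure.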 The format is functional.

Chain of Mu-type opioid receptor (P35372 whole entry): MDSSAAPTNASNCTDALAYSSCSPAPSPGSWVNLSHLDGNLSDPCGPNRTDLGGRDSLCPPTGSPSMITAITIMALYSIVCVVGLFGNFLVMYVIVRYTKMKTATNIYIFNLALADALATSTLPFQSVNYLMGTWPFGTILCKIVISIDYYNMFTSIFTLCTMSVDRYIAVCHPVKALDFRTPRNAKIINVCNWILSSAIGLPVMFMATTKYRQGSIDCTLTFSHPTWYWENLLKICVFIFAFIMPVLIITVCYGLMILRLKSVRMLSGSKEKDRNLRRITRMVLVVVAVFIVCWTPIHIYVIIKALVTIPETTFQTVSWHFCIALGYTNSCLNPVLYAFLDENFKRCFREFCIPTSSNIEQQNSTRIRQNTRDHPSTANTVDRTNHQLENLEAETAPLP
Chain of 5-hydroxytryptamine receptor 2A (P35363 whole entry): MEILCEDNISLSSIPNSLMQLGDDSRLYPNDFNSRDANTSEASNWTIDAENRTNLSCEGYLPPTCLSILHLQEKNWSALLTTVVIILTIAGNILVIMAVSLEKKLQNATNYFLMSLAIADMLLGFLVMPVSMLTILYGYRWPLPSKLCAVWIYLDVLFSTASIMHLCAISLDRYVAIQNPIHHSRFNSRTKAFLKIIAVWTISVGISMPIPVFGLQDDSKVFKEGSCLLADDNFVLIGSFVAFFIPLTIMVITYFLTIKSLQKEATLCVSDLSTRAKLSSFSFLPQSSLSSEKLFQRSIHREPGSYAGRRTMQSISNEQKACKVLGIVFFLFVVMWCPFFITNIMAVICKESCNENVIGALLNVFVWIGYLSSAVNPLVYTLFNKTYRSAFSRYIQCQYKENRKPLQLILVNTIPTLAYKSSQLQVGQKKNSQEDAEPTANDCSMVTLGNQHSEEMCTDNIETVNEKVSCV
Chain of Albumin (P02769 whole entry): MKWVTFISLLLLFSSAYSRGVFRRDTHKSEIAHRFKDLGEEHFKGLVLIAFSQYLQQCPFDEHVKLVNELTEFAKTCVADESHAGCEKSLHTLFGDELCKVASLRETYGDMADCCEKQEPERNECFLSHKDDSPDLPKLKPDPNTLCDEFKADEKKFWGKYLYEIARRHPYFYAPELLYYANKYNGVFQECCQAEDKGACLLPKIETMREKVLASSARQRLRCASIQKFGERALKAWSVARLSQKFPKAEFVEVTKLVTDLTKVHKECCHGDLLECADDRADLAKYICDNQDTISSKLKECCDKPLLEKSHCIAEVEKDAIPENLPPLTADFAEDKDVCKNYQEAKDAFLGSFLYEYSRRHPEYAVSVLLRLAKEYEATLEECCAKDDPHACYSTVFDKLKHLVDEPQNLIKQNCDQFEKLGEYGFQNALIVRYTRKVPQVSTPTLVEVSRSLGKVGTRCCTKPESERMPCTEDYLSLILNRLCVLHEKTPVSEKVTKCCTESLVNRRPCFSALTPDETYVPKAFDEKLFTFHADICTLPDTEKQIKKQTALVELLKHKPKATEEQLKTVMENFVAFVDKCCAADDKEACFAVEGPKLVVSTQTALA
Chain of Large T antigen (P03070 whole entry): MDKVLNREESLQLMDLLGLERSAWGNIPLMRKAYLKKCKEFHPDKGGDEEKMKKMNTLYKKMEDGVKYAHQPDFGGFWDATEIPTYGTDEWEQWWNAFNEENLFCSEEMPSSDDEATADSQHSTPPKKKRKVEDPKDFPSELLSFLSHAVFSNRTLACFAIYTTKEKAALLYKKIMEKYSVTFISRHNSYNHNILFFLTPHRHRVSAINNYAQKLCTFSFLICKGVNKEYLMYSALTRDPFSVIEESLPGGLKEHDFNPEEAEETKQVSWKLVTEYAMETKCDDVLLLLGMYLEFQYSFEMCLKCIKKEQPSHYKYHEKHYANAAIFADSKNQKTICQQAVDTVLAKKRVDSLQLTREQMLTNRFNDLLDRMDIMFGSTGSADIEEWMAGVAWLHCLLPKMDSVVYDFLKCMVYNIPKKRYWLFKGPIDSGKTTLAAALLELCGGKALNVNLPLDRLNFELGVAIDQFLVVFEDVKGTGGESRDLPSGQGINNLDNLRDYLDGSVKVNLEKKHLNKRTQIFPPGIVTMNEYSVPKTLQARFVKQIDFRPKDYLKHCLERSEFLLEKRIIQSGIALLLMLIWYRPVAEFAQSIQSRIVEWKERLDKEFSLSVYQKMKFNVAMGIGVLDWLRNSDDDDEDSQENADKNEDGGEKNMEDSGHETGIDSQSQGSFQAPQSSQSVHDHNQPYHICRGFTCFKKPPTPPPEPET
Chain of Luciferin 4-monooxygenase (P08659 whole entry): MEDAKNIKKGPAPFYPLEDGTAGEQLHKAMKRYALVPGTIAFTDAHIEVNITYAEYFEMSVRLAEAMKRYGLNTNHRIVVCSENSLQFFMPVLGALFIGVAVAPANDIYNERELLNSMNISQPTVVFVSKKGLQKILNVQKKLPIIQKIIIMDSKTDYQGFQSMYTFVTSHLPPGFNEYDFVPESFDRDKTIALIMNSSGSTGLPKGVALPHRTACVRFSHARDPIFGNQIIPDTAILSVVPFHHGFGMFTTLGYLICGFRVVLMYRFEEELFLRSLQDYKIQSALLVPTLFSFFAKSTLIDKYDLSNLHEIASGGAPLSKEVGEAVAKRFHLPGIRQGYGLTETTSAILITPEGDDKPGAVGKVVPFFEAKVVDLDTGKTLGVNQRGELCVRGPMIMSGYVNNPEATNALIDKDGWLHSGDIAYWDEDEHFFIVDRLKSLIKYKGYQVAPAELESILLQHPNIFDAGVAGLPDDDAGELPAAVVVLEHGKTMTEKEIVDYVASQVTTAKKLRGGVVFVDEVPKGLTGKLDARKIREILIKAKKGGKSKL

In the case of `CCOc1ccc(NC(=O)NNC(=O)c2ccc3ccccc3c2O)cc1`, the EC50 in [1] was 2.58 µM (active); in [2], > 150 µM (inactive). The results for the 50% inhibitory concentration (IC50) (in [3]; at Albumin) were 3.15 µM (active) and > 94.1 µM (inactive), respectively.
For the compound `CN(C)S(=O)(=O)c1cccc(NC(=O)CCc2c[nH]c3ccccc23)c1`, in [4], the concentration at half-maximal activity (AC50) is 97.9 µM (active).
For the compound `CC(=O)NC(CC(=O)NNC(=O)c1cc2ccccc2cc1O)c1ccccc1` (stereo not drawn), the EC50 was > 38 µM (not active) in assay [1] and > 160 µM (inactive) in assay [2]. Further, the IC50 at Albumin was > 94.1 µM (inactive).
With `Cc1nc(-c2nc(-c3c(C(=O)NNC(=O)Nc4cccc(Cl)c4)noc3C)cs2)cs1`, the concentration for a half-maximal effect (EC50) in assay [5] is 6.23 µM (active); on Mu-type opioid receptor it was 92.5 µM (inactive).
On to `CNC(=O)Oc1ccc(-c2cn3cc(C)ccc3n2)cc1`, for which the cytotoxic concentration (CC50) in [6] is 100 µM (active).
`Cc1cccc(N2CCN(CC(O)COc3ccc4ccccc4c3)CC2)c1` (stereo not drawn): the EC50 in assay [5] was 76 µM (inactive); at Mu-type opioid receptor, 92.4 µM (inactive).
As to `CN1CCN(c2ccc(CNC(=O)C3Cc4c(-c5ccc(Cl)cc5)ccnc4O3)cc2)CC1` (stereo not drawn), the AC50 in [7] was 72.1 µM (active).
In the case of `COc1cc(/C=N/Nc2nncn2/N=C/c2ccc(O)c(OC)c2)ccc1O`, the results for the half-inhibitory concentration (IC50) (in assay [8]; on Large T antigen) were 43.6 µM (active) and 12.9 µM (active), respectively. In addition, the EC50 in assay [9] is 2.63 µM (active); in [10], 0.658 µM (active). Also, the cytotoxic concentration (CC50) in assay [6] is 10.7 µM (active).
Take `CN(C)C(=O)c1ccc(-c2ccc([C@H]3[C@@H](CO)N4CCCCN(C(=O)C5CCCC5)C[C@@H]34)cc2)cc1`: the AC50 in [11] is 49 µM (active).
The same measure, in the same setting: in the case of `CC(C)CC#Cc1ccc2c(c1)O[C@H](CN(C)C(=O)c1cnccn1)[C@H](C)CN([C@@H](C)CO)S2(=O)=O` it was 10.5 µM (active).
Take `COc1cccc(OC)c1OCCN1CCN(C(=O)c2ccco2)CC1`: the concentration giving a half-maximal response (EC50) is 3.12 µM (active) in [5] and 92.4 µM (inactive) at Mu-type opioid receptor.
